Like-named read-outs stand apart in the source and are kept apart here.
Assays:
[1] = test system: Mycobacterium tuberculosis H37Rv; assay: In vitro drug interaction, checkerboard titration by 96-well microdilution; type: cell-based
Mtb [2] = settings: EBA study; cited from earlier work
Mtb [3] = settings: at its MIC and at doses used to treat adult pulmonary TB; cited from earlier work
Mtb [4] = settings: cited from earlier work
[5] = test system: Mtb gene clusters GC82 and GC120, iniBAC operon; settings: cited from earlier work
Mtb [6] = settings: cited from earlier work; remark: listed apart in the source
Mtb [7] = settings: cited from earlier work; remark: listed apart in the source
[8] = PK evaluation on coadministration with second-line drugs; settings: mice, SQ109 and MXF coadministered
Mtb [9] = settings: cited from earlier work; remark: listed apart in the source
[10] = test system: Mycobacterium tuberculosis H37Rv; settings: cited from earlier work
Mtb [11] = settings: in vitro; cited from earlier work
Mtb [12] = settings: mouse model of TB; cited from earlier work
Mtb [13] = settings: versus linezolid; cited from earlier work
[14] = in vivo; cited from earlier work
Mtb [15] = settings: cited from earlier work; remark: listed apart in the source

Structure (SMILES): CC(C)/N=c1\cc2n(-c3ccc(Cl)cc3)c3ccccc3nc-2cc1Nc1ccc(Cl)cc1 [CFZ, Clofazimine, reference compound]
- MIC ([1]; Mycobacterium tuberculosis, H37RV, read-out: MIC Alone): 0.5 µg/mL
- MIC Combination ([1]; checkerboard SQ109 + CFZ, Mtb H37Rv): 0.062 µg/mL

Structure (SMILES): C[C@]1(COc2ccc(N3CCC(Oc4ccc(OC(F)(F)F)cc4)CC3)cc2)Cn2cc([N+](=O)[O-])nc2O1 [Delamanid]
- early bactericidal activity (Mtb [2]): showed activity

Structure (SMILES): CC[C@@H](CO)NCCN[C@@H](CC)CO [EMB, ethambutol]
- bacteriostatic or bactericidal (Mtb [3]): bacteriostatic
- MIC on Mtb (Mtb [4]): 5 to 7 µg/mL
- Activity on Mtb gene clusters GC82 and GC120 [5]: Upregulates
- Effect on acid-fastness of Mtb (Mtb [6]): Decreases

Structure (SMILES): COc1c(N2C[C@@H]3CCCN[C@@H]3C2)c(F)cc2c(=O)c(C(=O)O)cn(C3CC3)c12 [MXF, moxifloxacin, reference compound]
- activity in mouse models (Mtb [7]): comparable to INH
- pharmacology profile on coadministration [8]: not affected

Structure (SMILES): Cc1ncc([N+](=O)[O-])n1CCO [Metronidazole]
- efficacy in mouse models of latent TB (Mtb [9]): not effective

Structure (SMILES): O=[N+]([O-])c1cn2c(n1)OC[C@@H](OCc1ccc(OC(F)(F)F)cc1)C2 [PA-824]
- early bactericidal activity (Mtb [2]): showed activity

Structure (SMILES): CO[C@H]1/C=C/O[C@@]2(C)Oc3c(C)c(O)c4c(O)c(c(/C=N/N5CCN(C)CC5)c(O)c4c3C2=O)NC(=O)/C(C)=C\C=C\[C@H](C)[C@H](O)[C@@H](C)[C@@H](O)[C@@H](C)[C@H](OC(C)=O)[C@@H]1C [RIF, rifampicin, reference compound]
- improvement of RIF activity [10]: eightfold

Structure (SMILES): CC(=O)NC[C@H]1CN(c2ccc(N3CCSCC3)c(F)c2)C(=O)O1 [Sutezolid]
- antimycobacterial activity versus linezolid (Mtb [11]): better antimycobacterial activity
- antimycobacterial activity versus linezolid (Mtb [12]): better antimycobacterial activity
- killing in ex vivo whole-blood culture test (Mtb [13]): better time-dependent killing
- safety profile [14]: improved safety profile compared with linezolid

Structure (SMILES): COc1nc2ccc(Br)cc2cc1[C@@H](c1ccccc1)[C@@](O)(CCN(C)C)c1cccc2ccccc12 [bedaquiline]
- improvement of the MIC of bedaquiline [10]: four- to eight-times
- postantibiotic effect (Mtb [15]; bedaquiline with SQ109): 14 h
- postantibiotic effect (Mtb [15]; bedaquiline without SQ109): 9 h

Structure (SMILES): COc1c(N2CCNC(C)C2)c(F)cc2c(=O)c(C(=O)O)cn(C3CC3)c12 (stereo not drawn) [gatifloxacin]
- activity in mouse models (Mtb [7]): comparable to INH

Structure (SMILES): CC(=O)NC[C@H]1CN(c2ccc(N3CCOCC3)c(F)c2)C(=O)O1 [linezolid]
- early bactericidal activity (Mtb [2]): minimal killing activity

— paper PMC3480206 (Future microbiology, 2012)
